Measured values taken from patent publication US11034661B2, “Substituted N′-hydroxycarbamimidoyl-1,2,5-oxadiazole compounds as indoleamine 2,3-dioxygenase IDO inhibitors” (Merck Sharp & Dohme Corp., priority 2017, dated 2021).

Key:
[1] = biological target: HIS-tagged IDO1 protein (Homo sapiens (Human), UniProt P14902); test: IDO1 Enzyme Assay; assay type: biochemical; conditions: recombinant IDO1 40 nM, tryptophan substrate, fluorescence readout
Protocol: Biological Assays IDO1 Enzyme Assay
(§1) Compounds to be tested were serially diluted in ten 3-fold steps in DMSO starting from 10 mM DMSO stocks. Compound dilutions or DMSO alone were then dispensed from the dilution plate into a Greiner black 384-well assay plate (catalog #781086) using an Echo 555 acoustic liquid handler (Labcyte).
HIS-tagged IDO1 protein was recombinantly expressed in Escherichia coli using ZYP5052 autoinduction media supplemented with 500 μM delta aminolevulinic acid for 48 hours at 16 degrees Celsius. IDO1 protein was purified using Ni^2+-affinity resin and size exclusion chromatography. Purified protein was then diluted in assay buffer (50 mM Tris pH 7.0, 1% glycerol, 20 μM methylene blue, 0.05% Tween-20, 20 mM sodium ascorbate, 100 units/mL catalase to obtain a final IDO1 concentration of 40 nM. IDO1 solution […] or buffer alone […] was dispensed to wells of the assay plate using a BioRAPTR liquid dispenser (Beckman Coulter). Assay plates containing compound and IDO1 enzyme were incubated at room temperature for 30 minutes. Afterwards, 10 μL of 400 μM tryptophan in assay buffer were added to each well of the assay plate using a BioRAPTR liquid dispenser. Plates were incubated at room temperature for 60 minutes and reactions were quenched by addition of 10 μL of 0.5 M methyl isonipecotate in dimethyl sulfoxide. Plates were sealed and incubated at 37 degrees Celsius for 4 hours or 50 degrees Celsius for 2 hours. The plates are allowed to cool and then centrifuged for 1 minute at 1000×g. The resulting fluorescence was measured in an Envision plate reader (Perkin Elmer) with a 400/25 nm excitation filter and an 510/20 nm emission filter.
Potencies were calculated by linear least squares fit to the four parameter logistic IC50 equation.

[2] = biological target: IDO1 in Hela cells stimulated with IFNγ (Homo sapiens (Human), UniProt P14902); test: IDO1 Cellular Assay in Hela Cells Stimulated with IFNγ; assay type: cell-based; conditions: IFNγ 100 ng/mL, about 48 hours, fluorescence readout, read-out: IDO1 HELA Cell Assay, IC50
Protocol: IDO1 Cellular Assay in Hela Cells Stimulated with IFNγ
Hela cells were cultured in complete Hela culture medium (90% EMEM, 10% heat-inactivated fetal bovine serum) and expanded to about 1×10^9 cells. The cells were then collected and frozen down at 10×10^6 cells/vial in 1 mL frozen medium (90% complete Hela culture medium, 10% DMSO)
as §1, with “stocks in Echo low volume plate(s).” for “stocks.”, “plate(s)” for “plate”, “into” for “into a”, “#781086, 50 nL/well)” for “#781086)”, “550” for “555”
Frozen Hela cells were thawed and transferred into Hela assay medium (99% complete Hela culture medium, 1% Pen/Strep) with 20 mL medium/vial of cells. The cells were spun down at 250 g in a table top centrifuge for 5 min and suspended in same volume of Hela assay medium. The cells were then counted and adjusted to a density of 2×10^5 cells/ml in Hela assay medium. Sterile L-tryptophan were added to the cells with final concentration of 300 uM L-tryptophan. A small aliquot (2 mL/plate) of Hela cells were set aside and were not treated with IFNγ, to serve as the Max-E control. The rest of Hela cells were added with sterile IFNγ (Cat #285-IF, R & D systems) with a final concentration of 100 ng/mL.
Hela cells with and without IFNγ were dispensed to the respective wells of 384-well assay plates containing the compounds. The plates were incubated for about 48 hours at a 37° C., 5% CO2 incubator. Afterwards, 12 μL of 0.5 M methyl isonipecotate in dimethyl sulfoxide were added into each well and the plates were sealed and incubated at 37° C. without CO2 overnight. The plates were centrifuged for 1 min at 200×g. The resulting fluorescence was measured in a Spectramax plate reader (Molecular Devices) with a 400 nm excitation filter and a 510 nm emission filter.
The fluorescence intensity of each well was corrected for the background observed in wells with non-IFNγ-treated cells and was expressed as a fraction of the intensity observed in wells of IFNγ-treated cells and DMSO only. Potencies were calculated by linear least squares fit to the four parameter logistic IC50 equation.

Sequence of HIS-tagged IDO1 protein (P14902 whole entry): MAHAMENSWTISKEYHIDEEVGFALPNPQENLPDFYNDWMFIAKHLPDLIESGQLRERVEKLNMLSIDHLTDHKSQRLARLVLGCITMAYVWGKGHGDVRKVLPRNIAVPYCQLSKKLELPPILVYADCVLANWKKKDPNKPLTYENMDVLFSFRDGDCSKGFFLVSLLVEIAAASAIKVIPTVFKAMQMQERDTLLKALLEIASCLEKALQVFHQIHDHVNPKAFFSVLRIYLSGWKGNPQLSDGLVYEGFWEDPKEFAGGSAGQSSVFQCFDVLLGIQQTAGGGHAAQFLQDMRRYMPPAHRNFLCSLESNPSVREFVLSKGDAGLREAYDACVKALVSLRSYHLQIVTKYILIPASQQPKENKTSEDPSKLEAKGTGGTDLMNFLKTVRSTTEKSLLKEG
Sequence of IDO1 in Hela cells stimulated with IFNγ (P14902 whole entry): as above

Row | IC50 [1] [µM] | IC50 [2] [µM] | Compound
1 | 1.81 | 1.29 | CC(=O)N[C@@H](CO)COc1nonc1/C(=N/O)N[C@H]1Cc2ccc(F)cc21 [Example 52, N-{(2S)-1-[(4-{N-[(7S)-4-fluorobicyclo[4.2.0]octa-1,3,5-trien-7-yl]-N′-hydroxycarbamimidoyl}-1,2,5-oxadiazol-3-yl)oxy]-3-hydroxypropan-2-yl}acetamide]
2 | 0.215 | 0.328 | CC(=O)NC[C@H](O)COc1nonc1/C(=N/O)N[C@H]1Cc2ccc(F)cc21 [Example 53, N-{(2S)-3-[(4-{N-[(7S)-4-fluorobicyclo[4.2.0]octa-1,3,5-trien-7-yl]-N′-hydroxycarbamimidoyl}-1,2,5-oxadiazol-3-yl)oxy]-2-hydroxypropyl}acetamide]
3 | 1.49 | 1.34 | O=C(CO)N1CC[C@H]1COc1nonc1/C(=N/O)N[C@H]1Cc2ccc(F)cc21 [Example 54, N-[(7S)-4-fluorobicyclo[4.2.0]octa-1,3,5-trien-7-yl]-N′-hydroxy-4-{[(2S)-1-(hydroxyacetyl)azetidin-2-yl]methoxy}-1,2,5-oxadiazole-3-carboximidamide]
4 | 0.215 | 0.328 | CC(=O)NC[C@@H](CO)Oc1nonc1/C(=N/O)N[C@H]1Cc2ccc(F)cc21 [Example 55, N-{(2S)-2-[(4-{N-[(7S)-4-fluorobicyclo[4.2.0]octa-1,3,5-trien-7-yl]-N′-hydroxycarbamimidoyl}-1,2,5-oxadiazol-3-yl)oxy]-3-hydroxypropyl}acetamide]
5 | 1.49 | 1.34 | O=C(CO)N1CCC[C@@H]1COc1nonc1/C(=N/O)N[C@H]1Cc2ccc(F)cc21 [Example 58, N-[(7S)-4-fluorobicyclo[4.2.0]octa-1,3,5-trien-7-yl]-N′-hydroxy-4-{[(2R)-1-(hydroxyacetyl)pyrrolidin-2-yl]methoxy}-1,2,5-oxadiazole-3-carboximidamide]
6 | 0.364 | 0.298 | O=C(CO)N1CC(COc2nonc2/C(=N/O)N[C@H]2Cc3ccc(F)cc32)C1 [Example 59, N-[(7S)-4-fluorobicyclo[4.2.0]octa-1,3,5-trien-7-yl]-N′-hydroxy-4-{[1-(hydroxyacetyl)azetidin-3-yl]methoxy}-1,2,5-oxadiazole-3-carboximidamide]

Continued, compound first:

Row | Compound | IC50 [1] [µM] | IC50 [2] [µM]
7 | NS(=O)(=O)N1CC[C@@H](Oc2nonc2/C(=N/O)N[C@H]2Cc3ccc(F)cc32)C1 [Example 31, N-[(7S)-4-fluorobicyclo[4.2.0]octa-1,3,5-trien-7-yl]-N′-hydroxy-4-{[(3R)-1-sulfamoylpyrrolidin-3-yl]oxy}-1,2,5-oxadiazole-3-carboximidamide] | 0.747 | 0.75
8 | NS(=O)(=O)N1CC[C@H](Oc2nonc2/C(=N/O)N[C@H]2Cc3ccc(F)cc32)C1 [Example 32, N-[(7S)-4-fluorobicyclo[4.2.0]octa-1,3,5-trien-7-yl]-N′-hydroxy-4-{[(3S)-1-sulfamoylpyrrolidin-3-yl]oxy}-1,2,5-oxadiazole-3-carboximidamide] | 0.308 | 0.34
9 | NS(=O)(=O)CCOc1nonc1/C(=N/O)N[C@H]1Cc2ccc(F)cc21 [Example 34, N-[(7S)-4-fluorobicyclo[4.2.0]octa-1,3,5-trien-7-yl]-N′-hydroxy-4-(2-sulfamoylethoxy)-1,2,5-oxadiazole-3-carboximidamide] | 0.289 | 0.87
10 | CC(C)(COc1nonc1/C(=N/O)N[C@H]1Cc2ccc(F)cc21)NC(=O)CO [Example 35, N-{1-[(4-{N-[(7S)-4-fluorobicyclo[4.2.0]octa-1,3,5-trien-7-yl]-N′-hydroxycarbamimidoyl}-1,2,5-oxadiazol-3-yl)oxy]-2-methylpropan-2-yl}-2-hydroxyacetamide] | 2.15 | 2.03
11 | CC(=O)N[C@H]1C[C@H](Oc2nonc2/C(=N/O)N[C@H]2Cc3ccc(F)cc32)C1 [Example 37, N-{trans-3-[(4-{N-[(7S)-4-fluorobicyclo[4.2.0]octa-1,3,5-trien-7-yl]-N′-hydroxycarbamimidoyl}-1,2,5-oxadiazol-3-yl)oxy]cyclobutyl}acetamide] | 0.0834 | 0.0913
12 | CC(=O)NC(CO)COc1nonc1/C(=N/O)N[C@H]1Cc2ccc(F)cc21 (stereo partly drawn) [Example 39, N-{1-[(4-{N-[(7S)-4-fluorobicyclo[4.2.0]octa-1,3,5-trien-7-yl]-N′-hydroxycarbamimidoyl}-1,2,5-oxadiazol-3-yl)oxy]-3-hydroxypropan-2-yl}acetamide] | 0.334 | 0.446
13 | CC(=O)NC[C@H](C)Oc1nonc1/C(=N/O)N[C@H]1Cc2ccc(F)cc21 [Example 40, N-{(2S)-2-[(4-{N-[(7S)-4-fluorobicyclo[4.2.0]octa-1,3,5-trien-7-yl]-N′-hydroxycarbamimidoyl}-1,2,5-oxadiazol-3-yl)oxy]propyl}acetamide] | 2.38 | 1.03
14 | COC(=O)NCCOc1nonc1/C(=N/O)N[C@H]1Cc2ccc(F)cc21 [Example 41, methyl {2-[(4-{N-[(7S)-4-fluorobicyclo[4.2.0]octa-1,3,5-trien-7-yl]-N′-hydroxycarbamimidoyl}-1,2,5-oxadiazol-3-yl)oxy]ethyl}carbamate] | 0.141 | 0.181
15 | O=C(COc1nonc1/C(=N/O)N[C@H]1Cc2ccc(F)cc21)N1CC[C@@H](O)C1 [Example 44, N-[(7S)-4-fluorobicyclo[4.2.0]octa-1,3,5-trien-7-yl]-N′-hydroxy-4-{2-[(3R)-3-hydroxypyrrolidin-1-yl]-2-oxoethoxy}-1,2,5-oxadiazole-3-carboximidamide] | 0.866 | 1.31
16 | O=C(COc1nonc1/C(=N/O)N[C@H]1Cc2ccc(F)cc21)N1CC[C@H](O)C1 [Example 45, N-[(7S)-4-fluorobicyclo[4.2.0]octa-1,3,5-trien-7-yl]-N′-hydroxy-4-{2-[(3S)-3-hydroxypyrrolidin-1-yl]-2-oxoethoxy}-1,2,5-oxadiazole-3-carboximidamide] | 0.99 | 1.28
17 | C[C@@H](CNC(=O)CO)Oc1nonc1/C(=N/O)N[C@H]1Cc2ccc(F)cc21 [Example 46, N-{(2S)-2-[(4-{N-[(7S)-4-fluorobicyclo[4.2.0]octa-1,3,5-trien-7-yl]-N′-hydroxycarbamimidoyl}-1,2,5-oxadiazol-3-yl)oxy]propyl}-2-hydroxyacetamide] | 2.45 | 1.64
18 | NS(=O)(=O)N1CCC(Oc2nonc2/C(=N/O)N[C@H]2Cc3ccc(F)cc32)CC1 [Example 49, N-[(7S)-4-fluorobicyclo[4.2.0]octa-1,3,5-trien-7-yl]-N′-hydroxy-4-[(1-sulfamoylpiperidin-4-yl)oxy]-1,2,5-oxadiazole-3-carboximidamide] | 10.7 | 7.31
19 | O=C(CO)N1CCC(Oc2nonc2/C(=N/O)N[C@H]2Cc3ccc(F)cc32)CC1 [Example 50, N-[(7S)-4-fluorobicyclo[4.2.0]octa-1,3,5-trien-7-yl]-N′-hydroxy-4-{[1-(hydroxyacetyl)piperidin-4-yl]oxy}-1,2,5-oxadiazole-3-carboximidamide] | 0.516 | 0.822
20 | CC(=O)N[C@H](CO)COc1nonc1/C(=N/O)N[C@H]1Cc2ccc(F)cc21 [Example 51, N-{(2R)-1-[(4-{N-[(7S)-4-fluorobicyclo[4.2.0]octa-1,3,5-trien-7-yl]-N′-hydroxycarbamimidoyl}-1,2,5-oxadiazol-3-yl)oxy]-3-hydroxypropan-2-yl}acetamide] | 1.07 | 1.34
